Where a name gives a salt, the structure may show the parent alone. Read-outs that look alike come from different tables or passages of the source.
How the values were obtained:
human fat suspension [1] = experiment: In vitro glycerol production assay, 250 mg/ml human fat suspension (Example 9); format: cell-based; details: for Glycerol production (FIG. 20): 250 mg/ml human fat suspension, 4 hrs at 37 degrees Celsius; for Glycerol content: 4 hrs at 37° C.
Procedure: Test compounds were added at a concentration as indicated and vials were incubated for 4 hrs at 37° C. Vials were mixed every hour. Glycerol production in 4 hrs was calculated by analyzing glycerol content of the control (a suspension which was not incubated but instead immediately frozen) vs control samples that were incubated for 4 hours. The produced glycerol quantity was set as 100%. The glycerol content of experimental samples was expressed as % of the control.
Experimental samples were frozen after incubation. The fat pellet was removed and upon defrosting, samples were spun down (13000 rpm for 15 min at 4° C.), and clear supernatant was pipetted off and frozen until analysis.
Glycerol was analyzed using an enzymatic kit (Glycerol Assay Kit, Sigma Aldrich). Briefly, in a 96 well plate (Corning), 100 microliter glycerol assay reaction mix was added to 10 microliter samples of supernatant and left to incubate for 20 minutes after shaking for 15 seconds. Absorbance was read by a platereader (Thermo Multiskan FC) at 570 nm. A glycerol calibration line (0.015 microM-1000 microM) was used for quantification.

[2] = Stability / hydrolysis in PBS at 37 degrees (Example 6); format: physicochemical
Procedure: Samples were analyzed using HPLC UV.

lipase = details: inhibitor added 5 minutes before, relative to control; for Effect on hydrolysis of octopamine decanoate in fat suspension: octopamine decanoate 10 microM; for Effect on hydrolysis of synephrine decanoate in fat suspension: synephrine decanoate 10 microM
[3] = female, human, 15 min, 10 microM
Procedure: Human belly adipose tissue was obtained from obese female subjects that underwent esthetic surgery. Tissue was pottered (Potter RW 19 Nr 29795 of Janke & Kunkel KG) in PBS solution (Irvine Scientific) with 5 mM D(+)-glucose monohydrate at 530 rpm using a Teflon potter tip.
Tissue suspension (1, 7.5, 25 or 240 mg fat/ml PBS, or plasma) was stirred and 1.98 ml aliquots were transferred to polypropylene 2 ml screwcap vials (Sarstedt). […] When inhibition of lipase was studied, propranolol or orlistat were added 5 minutes before addition of the prodrug esters (FIG. 10).
15 minutes after addition of the prodrug, lipolysis was stopped by adding 20 microliter of 1.8% HCl. Samples were spun down (13000 rpm for 3 min at 4° C.) and supernatants were stored at −18° C. for analysis.
Samples were analyzed using HPLC UV. A Gilson 234 auto-injector and Shimadzu hplc pump (10 AdVP) was used in conjunction with a shimadzu UV (10AVp) set at 270 nm. Samples were separated using a reversed phase HPLC column (Thermo BDS Hypersil C18 150 mm×2.1 mm, 3 micrometer). The mobile phase consisted of 1.6 g KH2PO4, 110 mg sodium 1-heptane sulfonate, 1 1 ultrapure water, 15 mL methanol and 1 ml acetic acid at a flowrate of 0.175 ml/min.

[4] = Plasma levels of octopamine in human volunteers (Example 10); format: in vivo
Procedure: After thorough washing of hands, blood was sampled using […]. Blood (40 microliter) was sampled using a capillary that protruded the cap of the vial and spun down into 300 microliter vials containing 10 microliter of heparin 20 IE/ml. Plasma was pipetted off and transferred to 300 microliter vials and stored at -20° C. until analysis. Octopamine was analyzed as described in Example 7. […] FIG. 17b), and of octopamine pentanoate (3.98 mg/ml, 2.5 ml, once daily); FIG. 17c). Experiments are an average of one or two experiments (n=1-2).

[5] = Skin penetration chamber, human skin (Example 7); format: in vitro ADME; details: 0.25 ml hydrogel 2.75 mg/ml, human skin 6.25 cm^2, 2 hours
Procedure: The chamber was thermostated at 37° C. Samples were drawn from the PBS pottered tissue with a 1 ml syringe and analyzed using LC-mass spectrometry. Given the full conversion, this assay evaluates the total penetration of octopamine prodrug through skin based on equal amounts of octopamine, and compares this to the penetration of an equal amount of octopamine itself. Samples were analyzed using HPLC masspectrometry. A Shimadzu HPLC (LC20AD pump and […] injector) was used in conjunction with a sciex API 4000 Masspectrometer. The HPLC column was a Phenomenex, Synergi Max (BOL-P-RP2.5-036), 3.0×100mm, […], thermostated at 35° C. The mobile phase consisted of Eluent A: 0.1% formic acid (“FA”) in ultrapure water (“UP”) and Eluent B: 70% acetonitrile (“ACN”) +0.1% FA at a total flow of 0.3 ml/min. […] UP/ACN/FA =50/50/0.1. […] Gradients were maintained at 100% B for 0.5 minute. […] Samples were centrifugated for 5 mins at 13000 rpm and 14 μL 0.1% FA in UP was added to 6 μL supernatant and vortexed for 10 sec. The autoinjector was programmed to add 20 μl 0.5 mg/ml […] reagent (online) and inject 35 μl. The […] reagent was prepared by dissolving 5 mg […] in 4.5 ml UP, 5 ml 0.25 M NaHCO3, 0.5 ml methanol (“MeOH”) and 20 microliter 2-mercapto-ethanol.

human fat suspension [6] = experiment: In vitro assay of glycerol production in human fat (Example 3); format: cell-based; details: 2 hours at 37 degrees Celsius
Procedure: Human fat tissue was pottered using a teflon potter in 10 ml PBS with 6 mM Glucose (2.4 gram fat tissue per 10 ml). The suspension was transferred to a 50 ml beaker and was gently stirred at 37 degrees Celsius to maintain the homogeneous nature. 0.3 ml suspension was transferred to 2 ml reaction vials, spiked with octopamine (end concentration 1 microM) and octopamine decanoate (end concentration 10 microM and PBS/glucose were added until 2 ml end volume. Vials were incubated at 37 degrees Celsius for 2 hours.
Samples were spun off at 4000 rpm for 2 min and 10 microliter samples were taken after removal of floating fat with a tissue.
(§1) Samples were analyzed using an enzymatic kit (Sigma Aldrich) and fluorescence intensity was measured using direct flow injection (Vici valve in combination with Shimadzu 10 ADvp HPLC pump at 0.15 ml/min, thermo 15*2.1 C18 column prior to valve and using ultrapure water as mobile phase) of 20 microliter into a HPLC fluorescence detector (Shimadzu RF 10Ax1). Calibration was performed by preparation of calibration samples 2-1000 microM.

[7] = Skin and fat penetration assay, cubes of human fat with skin (Example 8); format: in vitro ADME
Procedure: Cubes of human fat (5×5×5 cm) with skin attached from obese female subjects that underwent esthetic surgery was dissected at 4° C. Cubes were transferred to containers so the skin would overlay the rim of the container. 0.25 ml of hydrogels comprising 2.75 mg/ml free octopamine, 5 mg/ml octopamine decanoate or 3.98 mg/ml octopamine pentanoate were applied once and left to penetrate for 20 hrs. Cubes were subsequently frozen at −80° C.
Upon defrosting, skin was carefully removed taking care not to contaminate the underlying fat. The fat was dissected to yield a column of 1×1 cm of fat that was directly under the site of application. The column was sliced to yield 0.5 cm thick slices covering 0-2cm fat depth under the site of application. Tissue was sonicated in 5 ml PBS (5 mM glucose), samples were spun down (13000 rpm for 30 min at 4° C.). Clear supernatant was removed with an injection needle and syringe and frozen until analysis. Analysis of octopamine was performed as described in Example 7.

human volunteers [8] = experiment: Application on human volunteers: waistline and skinfold (Example 10); format: in vivo; details: for Decrease of waistline: same molar concentration
Procedure: For abdominal/hip experiments 2 male volunteers […] (BMI 25.5 and 28 resp.) monitored belly circumference, and skinfold at belly and hip on a daily basis (8 am mornings). Blood pressure and body weight was monitored daily. […] Hydrogel was applied daily or twice daily as indicated using a 5 ml syringe to measure volume. For abdominal experiments, the indicated volume of hydrogel was applied on the belly around the belly button in a radius of 10 cm. The same volume was applied for hip areas. For leg experiments, 2.5 ml was applied on each leg. Skinfold was assessed by measuring thickness of skin at hips and belly 4 cm from belly button using a skinfold measuring device ([…]-120). […] Experiments are the average of two experiments (n=2). […] Experiments are an average of 2 or 3 runs (n=2-3).

[9] = In vitro ester hydrolysis assay, control in PBS without tissue (spontaneous hydrolysis); format: physicochemical; details: 30 degrees
Procedure: (§2) Octopamine released was measured using a 50 ml beaker thermostated at 30 degrees. 30 ml PBS (stirred) was pumped at 1 ml/min (Gilson minipulse 3) through a UV detector (SPD-10Avp Shimadzu UV/VIS) set at 280 nm and 2.56 AUFS. The outlet was recirculated back to the beaker. UV signal was recorder on a flatbed recorder (Kipp), set at 1 mm/min and 1 mV gain.
(§3) Octopamine and octopamine decanoate solutions (1 mM) were made in ultrapure water adding 1 microliter/ml of 1.8% hydrochloride acid. Octopamine decanoate was sonicated for 30 min at 30 degrees.
(§4) Upon stabilization of the UV detector on PBS, 1 ml of tissue suspension was added to the PBS. Upon stabilization of the UV signal, 5 ml of 1 mM of octopamine decanoate was added. Control experiments were performed without addition of tissue suspension in order to monitor spontaneous hydrolysis of decanoate ester in PBS.

[10] = In vitro ester hydrolysis assay in PBS/human fat suspension; format: in vitro ADME; details: PBS/human fat tissue at concentrations three times higher than rat tissue, in 110 min
Procedure: Abdominal fat tissue was harvested from male wistar rats (400 g, Harlan Zeist) and stored at −80° C. until use. Human fat tissue was obtained from esthetic surgery and stored at −80° C. until use. Tissue was thuraxed (80 mg/ml for rat tissue and 240 mg/ml for human tissue) for 1 min in Phosphate buffered saline (PBS (Irvine Scientific).
as §2, §3, §4

Male wistar rats = experiment: In vivo effect of hydrogel treatment on waist, weight and plasma glycerol of rats (Example 5); parameters: species or system rat
Procedure: Male wistar rats (approx. 500 g) were weight daily and waistline was measured. Animals were shaven once weekly at least 12 hours before next treatment to ensure wound healing.
Animals were first treated for 1 month with carbomer hydrogel not containing prodrugs (twice daily abdominal application 3 by 3 cm) , after which animals were treated with 0.5 ml carbomer hydrogel containing 5 mg/ml octopamine decanoate (application concentration 0.277 mg/cm^2). Tail vena blood draws (100 microliter plasma, 5 microliter heparine 500 IE per 100 microliter blood) were taken on the day −8, 21, 36 (start of compound treatment), 51 and 58. Blood was spun off (10 min 14 KRPM) and plasma was stored at −80.
as §1, with “Blood samples were” for “Samples were”, “analyzed for glycerol” for “analyzed”, “with shimadzu” for “with Shimadzu”, “ADvp hplc” for “ADvp HPLC”, “RF 10Axl).” for “RF 10Ax1).”

human volunteers [11] = experiment: Blood pressure, heart rate and side effects in human volunteers (Example 10); details: humans
[12] = humans n=2, hydrogel on belly and hips, 2.5 ml once daily or 5 ml twice daily, after 16 days
[13] = hydrogel 5 mg/ml, 5 ml twice daily on belly and hips

C[C@H](Cc1ccc2c(c1)OC(C(=O)[O-])(C(=O)[O-])O2)NC[C@H](O)c1cccc(Cl)c1.[Na+].[Na+] [CL 316243]
Glycerol production (FIG. 20) (human fat suspension [1]): increased

CC(C)(C)NCC(O)COc1cccc2[nH]c(=O)[nH]c12 (stereo not drawn) [CGP12177]
Glycerol production (FIG. 20) (human fat suspension [1]): increased

COC(=O)[C@@H]1[C@H]2C[C@H]3c4[nH]c5ccccc5c4CCN3C[C@@H]2CC[C@@H]1O [yohimbine, Yohimbine]
Glycerol production (FIG. 20) (human fat suspension [1]): increased

CNCC(O)c1ccc(O)cc1 (racemic) [synephrine, p-synephrine, reference compound]
Stability in PBS ([2]; PBS at 37 degrees): stable

CCCCCCCCCCC[C@@H](C[C@@H]1OC(=O)[C@H]1CCCCCC)OC(=O)[C@H](CC(C)C)NC=O [Orlistat]
Effect on hydrolysis of octopamine decanoate in fat suspension (lipase): further suppresses | Effect on hydrolysis of synephrine decanoate in fat suspension (lipase): further suppresses

CCc1ccccc1OC[C@@H](O)CN[C@H]1CCCc2ccccc21 [SR 59230]
Glycerol production (FIG. 20) (human fat suspension [1]): reduced

CCCCCCCCCC(=O)Oc1ccc(C(O)CNC)cc1 (stereo not drawn) [synephrine decanoate, 4-(1-hydroxy-2-(methylamino)ethyl)phenyl decanoate]
Base level of hydrolysis in fat suspension [3]: 40-45% | Hydrolysis in PBS compared with plasma or fat tissue ([2]; PBS at 37 degrees): much lower rate

CCOC(=O)COc1ccc2c(c1)C[C@@H](NC[C@H](O)c1cccc(Cl)c1)CC2 [SR 58611A, Amibegron]
Glycerol production (FIG. 20) (human fat suspension [1]): increased

CC(C)NC[C@H](O)COc1cccc2ccccc12 [propranolol, (S)-(-)-Propranolol HCl]
Effect on hydrolysis of octopamine decanoate in fat suspension (lipase): decreases | Effect on hydrolysis of synephrine decanoate in fat suspension (lipase): decreases | Glycerol content (human fat suspension [1]; concentrations above 1000 nM): decreased | Glycerol content (human fat suspension [1]; concentrations from 0.1 to at least 1000 nM): more or less constant

p-Octopamine [reference compound]
Plasma levels of free octopamine upon administration of hydrogel ([4]; humans, 2.5 ml or 5 ml hydrogel): acceptable systemic concentrations | Penetration of octopamine through skin [5]: minor penetration | Stability in PBS [2]: stable | Glycerol production (levels) (human fat suspension [6]; end concentration 1 microM, P=0.10): increased | Penetration through skin and fat tissue ([7]; 0.25 ml hydrogel applied once, 20 hrs): penetrate through both skin and fat tissue | Decrease of waistline (human volunteers [8]; [12]): without effect | Decrease of waistline (human volunteers [8]; single individual, hydrogel on belly and hips, after 21 days): without effect

Cn1c(=O)c2c(ncn2C)n(C)c1=O [caffeine]
Glycerol production (FIG. 20) (human fat suspension [1]): increased

CCCCCCCCCC(=O)Oc1ccc(C(O)CN)cc1 (stereo not drawn) [octopamine decanoate, 4-(2-amino-1-hydroxyethyl)phenyl decanoate]
Plasma levels of free octopamine upon administration of hydrogel ([4]; human, in vivo): did not result in unacceptable plasma levels | Spontaneous hydrolysis into octopamine, rate [9]: 10 % per 110 min | Base level of hydrolysis in fat suspension [3]: 40-45% | Hydrolysis in PBS compared with plasma or fat tissue ([2]; PBS at 37 degrees): much lower rate | Glycerol production (levels) (human fat suspension [6]; end concentration 10 microM, P=0.047): reached significance | Penetration through skin and fat tissue [7]: penetrate through both skin and fat tissue | Conversion by hydrolysis [10]: over 40% | Animal weights (Male wistar rats; 0.5 ml hydrogel 5 mg/ml twice daily abdominal): remained inclining according to their growth curve | Reduction of waistline (Male wistar rats; 0.5 ml hydrogel 5 mg/ml twice daily abdominal, after 3 weeks of treatment): about 10% | Plasma glycerol levels (Male wistar rats; after 15 days of treatment, P=0.101): increased | Plasma glycerol levels (Male wistar rats; after 22 days of treatment, P=0.024): reaching significance | Blood pressure (systole and diastole) (human volunteers [11]; [13]): remained normal | Heart rate (human volunteers [11]; [13]): remained normal | Side effects (human volunteers [11]; topical hydrogel treatment regimes): No side effects were reported | Decrease of waistline (human volunteers [8]; [12]): about 4% | Reduction of skinfold (belly and hip) (human volunteers [8]; hydrogel 5 mg/ml, 5 ml twice daily, in 20 days): 10-20%

Cc1cccc(C)c1N=C1NCCCS1 [xylazine, Xylazine]
Glycerol production (FIG. 20) (human fat suspension [1]): reduced

From US20210220241A1, “Body Sculpting” (Sculpt B.V., priority 2014, published 2021)
